In the supplement of paper PMC10307832:

Assays:
Test in all cases: relative viability (nuclei count vs DMSO), 5 days (fraction); higher = more cells survive
RAF265 + AZD7762 = compound: Cn1c(Nc2ccc(C(F)(F)F)cc2)nc2cc(Oc3ccnc(-c4ncc(C(F)(F)F)[nH]4)c3)ccc21 [RAF265] + NC(=O)Nc1cc(-c2cccc(F)c2)sc1C(=O)N[C@H]1CCCNC1 [AZD7762] (partner 0.2 µM)
Method in brief: (§1)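 Lung cancer cell lines in 1536-well plates were dosed by pin tool the day after seeding, either with one drug alone or with a fixed anchor-drug dose plus five library-drug doses (not always all listed) in √10 steps. After 5 days, cells were fixed and their nuclei stained in one step (final 0.05% Triton X-100, 1% formaldehyde, 1 ug/ml Hoechst), then counted on 4× images. Relative viability is the nuclei count in treated wells divided by that in vehicle wells. Values are medians of duplicate plates.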

[1] = compound: Cc1ccc(-n2nc(C(C)(C)C)cc2NC(=O)Nc2ccc(OCCN3CCOCC3)c3ccccc23)cc1 [Doramapimod] + CC(=O)c1c(C)c2cnc(Nc3ccc(N4CCNCC4)cn3)nc2n(C2CCCC2)c1=O [Palbociclib] (partner 0.5 µM)
Method in brief: as §1

IPA-3 + Dasatinib = compound: C1=CC=C2C(=C1)C=CC(=C2SSC3=C(C=CC4=CC=CC=C43)O)O [IPA-3] + Cc1nc(Nc2ncc(C(=O)Nc3c(C)cccc3Cl)s2)cc(N2CCN(CCO)CC2)n1 [Dasatinib] (partner 0.075 µM)
Method in brief: as §1

Doramapimod + Navitoclax = compound: Cc1ccc(-n2nc(C(C)(C)C)cc2NC(=O)Nc2ccc(OCCN3CCOCC3)c3ccccc23)cc1 [Doramapimod] + CC1(C)CCC(c2ccc(Cl)cc2)=C(CN2CCN(c3ccc(C(=O)NS(=O)(=O)c4ccc(N[C@H](CCN5CCOCC5)CSc5ccccc5)c(S(=O)(=O)C(F)(F)F)c4)cc3)CC2)C1 [Navitoclax] (partner 0.5 µM)
Method in brief: as §1

Row | Cell Line | relative viability (RAF265 + AZD7762; first compound 0.01 µM) | relative viability (RAF265 + AZD7762; first compound 0.03162 µM) | relative viability (RAF265 + AZD7762; first compound 0.1 µM) | relative viability (RAF265 + AZD7762; first compound 0.3162 µM) | relative viability (RAF265 + AZD7762; first compound 1 µM) | relative viability ([1]; first compound 0.02 µM) | relative viability ([1]; first compound 0.06325 µM) | relative viability ([1]; first compound 0.2 µM) | relative viability ([1]; first compound 0.6325 µM) | relative viability ([1]; first compound 2 µM) | relative viability (IPA-3 + Dasatinib; first compound 0.2 µM) | relative viability (IPA-3 + Dasatinib; first compound 0.6325 µM) | relative viability (IPA-3 + Dasatinib; first compound 2 µM) | relative viability (IPA-3 + Dasatinib; first compound 6.325 µM) | relative viability (IPA-3 + Dasatinib; first compound 20 µM) | relative viability (Doramapimod + Navitoclax; first compound 0.02 µM) | relative viability (Doramapimod + Navitoclax; first compound 0.06325 µM) | relative viability (Doramapimod + Navitoclax; first compound 0.2 µM) | relative viability (Doramapimod + Navitoclax; first compound 0.6325 µM) | relative viability (Doramapimod + Navitoclax; first compound 2 µM)
1 | NCI-H1648 | 0.698 | 0.514 | 0.804 | 0.758 | 0.567 | 0.262 | 0.293 | 0.248 | 0.249 | 0.234 | – | – | – | – | – | – | – | – | – | –
2 | NCI-H1650 | – | – | – | – | – | 0.411 | 0.363 | 0.428 | 0.425 | 0.35 | 0.331 | 0.301 | 0.323 | 0.404 | 0.295 | 1.09 | 1.2 | 1.23 | 1.63 | 1.2
3 | NCI-H1703 | 0.132 | 0.133 | 0.126 | 0.142 | 0.099 | – | – | – | – | – | – | – | – | – | – | 0.957 | 0.944 | 1.16 | 1.54 | 0.896
4 | NCI-H2009 | – | – | – | – | – | 0.26 | 0.262 | 0.3 | 0.314 | 0.247 | 0.346 | 0.307 | 0.287 | 0.295 | 0.19 | 1.25 | 1.18 | 1.2 | 1.29 | 1.19
5 | NCI-H2023 | – | – | – | – | – | 0.299 | 0.367 | 0.296 | 0.392 | 0.323 | 0.816 | 0.513 | 0.68 | 0.493 | 0.679 | 1.09 | 1.08 | 0.892 | 1 | 0.948
6 | NCI-H2228 | – | – | – | – | – | 0.797 | 1.04 | 0.746 | 0.686 | 0.66 | 0.571 | 0.51 | 0.529 | 0.62 | 0.557 | 0.669 | 0.786 | 1.05 | 0.913 | 0.605
7 | NCI-H2342 | 0.507 | 0.558 | 0.539 | 0.498 | 0.474 | 0.523 | 0.585 | 0.632 | 0.524 | 0.535 | 0.308 | 0.346 | 0.343 | 0.375 | 0.305 | – | – | – | – | –
8 | SK-LU-1 | – | – | – | – | – | 0.4 | 0.4 | 0.396 | 0.401 | 0.337 | 0.171 | 0.148 | 0.204 | 0.179 | 0.193 | 0.544 | 1 | 0.821 | 1.01 | 0.7
9 | SK-MES-1 | – | – | – | – | – | 0.316 | 0.288 | 0.341 | 0.316 | 0.269 | 0.339 | 0.329 | 0.47 | 0.333 | 0.44 | 1.16 | 1.25 | 1.23 | 1.25 | 0.99
10 | SW 900 | 0.709 | 0.483 | 0.671 | 0.466 | 0.348 | 0.57 | 0.537 | 0.558 | 0.584 | 0.531 | 0.74 | 0.703 | 0.667 | 0.781 | 0.543 | – | – | – | – | –
11 | SW 1573 | – | – | – | – | – | 0.449 | 0.358 | 0.298 | 0.354 | 0.313 | 0.689 | 0.395 | 0.589 | 0.452 | 0.151 | 1.11 | 0.83 | 1.05 | 0.78 | 0.789
